Laboratory results as given in patent US20250255847A1, “[…]s: Novel Drugs for Triple Negative Breast Cancer” (SIMMARON RSEARCH INC, priority 2024, published 2025).

Tested on: IL6
Experiment: IL6 real-time PCR and ELISA in MDA-MB-468 cells
Assay type: cell-based, human
Conditions: for gene expression of IL6 (real-time PCR): 20 nM, 5 hrs; for IL6 protein in supernatants (ELISA): EGF stimulation, 48 hrs
Procedure: FIG. 10 illustrates an embodiment of the present invention and illustrates SIM-1 and SIM-2 inhibit expressions of IL6, RANTES, and other STAT3-dependent tumor promoting genes and proteins. (A) A gene array of STAT3 dependent 66 genes (listed in Table 1) was performed in mRNA samples of MDA-MB-468 cells. Realtime PCR plate coated with 66 primer sets of STAT3-dependent genes was run for four conditions including control, EGF (25 ng/mL), EGF+SIM-1 (10 nM) and EGF+SIM-2 (10 nM). The resultant Ct value was normalized with four different housekeeping genes, and then summarized with a heatmap analyses drawn in Morpheus server of Broad Institute. […] (C) The cloning of STAT3 response element of IL6 promoter upstream of GFP reporter was performed by GeneCopoea genome editing service (Rockville, MD). The bit score map and sequence of consensus STAT3 response element or SEQ ID NO: 2 was shown below. EGFP reporter assay was performed in EGF-induced (20 ng/mL) MDA-MB-468 after treatments of increasing doses of (D) SIM-1 and (E) SIM-2 for 5 hrs. Briefly, MDA-MB-468 cells were transfected with the plasmid for 24 hrs using Lipofectamine transfection strategy followed by the treatment with EGF (20 ng/mL) alone and together with increasing doses SIM-1 and SIM-2 for additional 5 hrs. After that live cells were recorded at Ex:Em=485/535 nm wavelength for GFP activity. (F) The scrambled STAT3 response element in IL6 promoter or SEQ ID NO: 3 was also synthesized partnering with GeneCopoea. One-way ANOVA (treatment as effector) was adopted to test the significance between groups at **p<0.01, #p<0.005, and *p<0.05. (G) The GFP reporter activity was measured where the scrambled gene was cloned upstream of eGFP reporter. Results are mean±SD of three different experiments Ns=no significance. (H) Realtime PCR analyses of IL6 was performed in MDA-MB-468 cells maintained under control, EGF (25 ng/mL), EGF+SIM-1(20 nM), and EGF+SIM-2 (20 nM) conditions for 5 hrs. (I) ELISA analysis of IL6 was performed after 48 hrs in MDA-MB-468 cells kept under similar treatment conditions. (J) Realtime PCR (5 hrs post-treatment) and (K) ELISA analyses of RANTES (48 hrs post treatment) were performed under similar condition. Results are mean±SD of three different experiments. One-way ANOVA (treatment as effector) was adopted to test the significance between groups at ***p<0.001, **p<0.01, and *p<0.05.
ELISA assay. IL6 (BD OptEIA™; Cat #555220) and RANTES (Thermo; Cat #EHRNTS) ELISA was performed as per manufacturer's protocol. […]
Once the transcriptional regulation of STAT3-dependent genes was confirmed, the quantification of IL6 was performed. […]

| Compound | gene expression of IL6 (real-time PCR) | IL6 protein in supernatants (ELISA) |
| --- | --- | --- |
| O=C(O)CCC(=O)NCc1csc2ccc(Cl)cc12 [SIM-1, 4-[(5-chloro-1-benzothiophen-3-yl)methylamino]-4-oxobutanoic acid] | strongly inhibited | suppression of IL6 |
| CCOC(=O)c1c(NC(C)=O)sc2c(Cl)c(/C=N/O)ccc12 [SIM-2, ethyl 2-acetamido-7-chloro-6-(hydroxyiminomethyl)-1-benzothiophene-3-carboxylate] | strongly inhibited | suppression of IL6 |
